US4288341A, “Detergent product containing deodorant compositions” (priority 1978, dated 1981)

Target: T1, lipoxidase (EC1.13.1.13) (Glycine max, UniProt P08170)
T1 sequence (P08170 1-839): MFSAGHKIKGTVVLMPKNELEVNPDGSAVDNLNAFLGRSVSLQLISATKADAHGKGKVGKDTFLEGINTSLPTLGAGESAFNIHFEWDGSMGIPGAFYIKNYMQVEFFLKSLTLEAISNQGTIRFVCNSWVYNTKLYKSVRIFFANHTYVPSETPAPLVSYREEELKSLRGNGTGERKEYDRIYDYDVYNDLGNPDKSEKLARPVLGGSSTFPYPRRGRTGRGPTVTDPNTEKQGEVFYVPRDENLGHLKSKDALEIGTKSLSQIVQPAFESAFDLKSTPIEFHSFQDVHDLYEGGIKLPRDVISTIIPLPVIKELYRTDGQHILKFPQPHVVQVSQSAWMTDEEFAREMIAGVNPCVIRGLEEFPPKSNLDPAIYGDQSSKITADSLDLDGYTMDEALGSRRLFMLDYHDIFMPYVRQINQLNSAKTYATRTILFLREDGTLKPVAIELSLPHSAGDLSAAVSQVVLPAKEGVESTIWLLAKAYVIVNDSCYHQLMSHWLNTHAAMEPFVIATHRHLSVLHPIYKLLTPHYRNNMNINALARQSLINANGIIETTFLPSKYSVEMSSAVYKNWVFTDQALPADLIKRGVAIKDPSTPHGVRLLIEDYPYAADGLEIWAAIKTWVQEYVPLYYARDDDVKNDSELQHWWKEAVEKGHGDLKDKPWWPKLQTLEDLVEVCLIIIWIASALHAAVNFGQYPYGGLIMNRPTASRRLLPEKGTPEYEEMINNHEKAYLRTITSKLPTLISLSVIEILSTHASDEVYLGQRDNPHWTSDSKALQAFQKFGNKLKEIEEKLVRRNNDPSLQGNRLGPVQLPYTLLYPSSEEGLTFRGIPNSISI
Assay: Lipoxidase test: inhibition of the oxidation of linoleic acid by lipoxidase
Format: biochemical
Details: test substrate made with 0.5% by weight solution of material in ethanol; borate buffer pH 9.0; OD 234 nm

Dimyrcetol
LIC (lipoxidase-inhibiting capacity, % inhibition): 16%
